Experimental data from publication PMC3919030 (Journal of molecular biology, 2013).

Columns and labels:
Assay in all cases: size exclusion chromatography
Assay type in all cases: binding
Vps4p = biological target: T1, Vps4p (Saccharomyces cerevisiae, UniProt P52917, E233Q); conditions: 2 mM MgCl2, pH 7.4, 4 °C; 1 mM ATP; Walker B mutant
T1 sequence (P52917 1-437 E233Q): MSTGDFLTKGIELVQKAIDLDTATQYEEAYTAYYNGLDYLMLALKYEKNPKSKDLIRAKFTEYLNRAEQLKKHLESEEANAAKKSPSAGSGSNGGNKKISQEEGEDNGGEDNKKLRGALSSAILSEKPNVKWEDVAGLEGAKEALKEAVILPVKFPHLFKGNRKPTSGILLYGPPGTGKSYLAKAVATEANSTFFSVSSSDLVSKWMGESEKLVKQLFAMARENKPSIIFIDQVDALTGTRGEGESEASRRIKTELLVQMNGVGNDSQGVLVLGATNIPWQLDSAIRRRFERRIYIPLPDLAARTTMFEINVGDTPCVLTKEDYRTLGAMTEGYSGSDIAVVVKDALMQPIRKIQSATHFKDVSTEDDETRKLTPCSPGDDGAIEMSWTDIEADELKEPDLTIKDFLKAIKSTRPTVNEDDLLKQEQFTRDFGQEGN

SsoVps4 [1] = biological target: SsoVps4 (Saccharolobus solfataricus, UniProt Q97ZJ7, E206Q); conditions: 2 mM MgCl2, pH 7.4, 4 °C, Walker B mutant
SsoVps4 [2] = biological target: T2, SsoVps4 (Saccharolobus solfataricus, UniProt Q97ZJ7); conditions: 2 mM MgCl2, pH 7.4, 4 °C; 1 mM ADP
T2 sequence (Q97ZJ7 1-372): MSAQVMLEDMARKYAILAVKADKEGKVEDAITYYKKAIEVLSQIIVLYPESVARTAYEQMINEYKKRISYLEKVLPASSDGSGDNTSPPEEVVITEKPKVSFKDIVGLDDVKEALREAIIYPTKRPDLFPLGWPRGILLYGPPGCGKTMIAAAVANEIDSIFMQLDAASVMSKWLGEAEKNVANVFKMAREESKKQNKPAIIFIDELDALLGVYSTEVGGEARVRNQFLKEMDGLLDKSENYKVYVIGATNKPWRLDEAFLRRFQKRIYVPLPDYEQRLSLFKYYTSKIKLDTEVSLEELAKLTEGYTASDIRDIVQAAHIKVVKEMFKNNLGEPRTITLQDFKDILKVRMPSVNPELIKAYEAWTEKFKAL

SMILES	size exclusion chromatography (nucleotide-bound oligomer) (Vps4p)	size exclusion chromatography (nucleotide-induced shift of oligomer) (SsoVps4 [1]; 1 mM ATP)	size exclusion chromatography (nucleotide-induced shift of oligomer) (SsoVps4 [2])	size exclusion chromatography (nucleotide-induced shift of oligomer) (SsoVps4 [1]; 1 mM ADP)
Nc1ncnc2c1ncn2[C@@H]1O[C@H](COP(=O)(O)OP(=O)(O)OP(=O)(O)O)[C@@H](O)[C@H]1O [ATP]	ATP-bound Vps4p(E233Q) migrated more rapidly than the wild type protein	both wild type and E206Q SsoVps4 eluted as lower molecular weight complexes	–	–
Nc1ncnc2c1ncn2[C@@H]1O[C@H](COP(=O)(O)OP(=O)(O)O)[C@@H](O)[C@H]1O [ADP]	–	–	both proteins migrated slightly more rapidly when bound to ADP than ATP	both wild type and E206Q SsoVps4 eluted as lower molecular weight complexes
